# Test results from patent US20220362330A1, “Compositions and Methods for Increasing Epithelial Barrier Function” (The Board of Trustees of the Leland Stanford Junior …, priority 2019, published 2022).
# Key:
# genital mucosa = experiment: Entry of activated hPBMCs into vaginal tissue of humanized mice; format: in vivo, hPBMC-engrafted NSG mice; conditions: CFSE-labeled activated hPBMCs ivag, 15 h; DMPA vs DMPA and E cream
# Description: Because mice treated with DMPA and E were HSV-2 resistant and DMPA facilitated entry of leukocytes into vaginal tissue, it was posited that exogenous E blocks HIV-1 acquisition in a humanized mouse model of cell-associated HIV transmission. Human PBMC (hPBMCs)-engrafted NSG mice treated with DMPA or DMPA and E cream were ivag inoculated with CFSE-labeled activated hPBMCs. 15 h later, entry of these cells into vaginal tissue was examined by confocal microscopy. […] Humanized NSG mice treated as described above were also ivag infected with cell-associated HIV-1 (10^6 hPBMCs infected with HIV-1 Ba-L). 10 days later, serum was collected to quantify HIV-1 load via qRT-PCR.
# To evaluate mucosal permeability to activated leukocytes, 10^6 human peripheral blood mononuclear cells (hPBMC)/ml were plated in RPMI-1640 supplemented with 10% FBS, 2 mM L-glutamine, 1 mM sodium pyruvate, non-essential amino acids, 50 μM 2-mercaptoethanol, 100 U/ml penicillin, 100 μg/ml streptomycin and 50 μg/ml gentamycin (Mediatech, Manassas, Va.) (henceforth termed complete medium). Plated cells were stimulated for 48 hours with 5 μg/ml of phytohemagglutinin (PHA) (Sigma-Aldrich, St. Louis Mo.), centrifuged, re-suspended (2×10^6 cells/ml) in complete media supplemented with 10 IU/ml recombinant human IL-2 (rhIL-2) (PeproTech, Rocky Hill, N.J.), and incubated another 5 days. […]
# markers of inflammation = experiment: Expression of markers of inflammation in ectocervical biopsies from women; format: in vivo; conditions: 1 month after initiating DMPA vs no hormonal contraceptive
# [1] = tested on: claudin-1, occludin, and tight junction protein 1; experiment: Gene expression of other cell-cell adhesion molecules in vaginal tissue; format: in vivo, mice
# desmoglein-1a (DSG1a) = experiment: qRT-PCR of Dsg1a gene expression in vaginal tissue; format: in vivo, mice; conditions: progestin-treated mice vs mice in estrus
# Description: To define progestin-mediated changes in mucosal permeability, vaginal tissue from mice in estrus, diestrus, or after DMPA or LNG treatment was used to measure expression of the desmosomal cadherins desmoglein-1a (DSG1a) and desmocollin-1 (DSC1).
# (§1) Human ectocervical and murine vaginal tissues were immediately immersed in 1 mL of RNAlater® (Qiagen), stored for 24 h at 4° C., and stored long-term at −80° C. RNA isolated using the RNeasy Lipid Tissue Kit (Qiagen) using manufacturer's instructions was re-suspended in nuclease-free water and quantified using a NanoDrop spectrophotometer (Thermo Scientific). The following mouse primers were utilized: desmocollin 1 (Mm00496525_ml), desmoglein-1α (Mm00809994_s1), ephrinA3 (Mm01212723_g1) and pyruvate carboxylase (Mm00500992_ml) as housekeeping reference gene (all from Thermo Scientific). These human primers were used: desmoglein-1 (Hs00355084_m1) and glucose-6-phosphate isomerase (Hs00976711_m1) as a housekeeping reference gene. To define relative gene expression, 100 ng of RNA was mixed with TaqMan® RNA-to-Ct™ 1-Step Kit and adequate primer (final volume of 10 μL/well) using manufacturer's instructions (Life Technologies). qRT-PCR was performed using a Quantstudio3 Thermal Cycler, and data analyzed via Quanstudio Software (Applied Biosystems).
# DSG1 = DSG1 gene expression in ectocervical biopsies from women; format: in vivo; conditions: 1 month after initiating DMPA vs no hormonal contraceptive
# Source text: FIG. 3 is a graph showing the effect of DMPA on ectocervical DSG1 gene expression in women. Ectocervical biopsy tissue collected from the same women; before they started (No HC) and 1 month after they initiated DMPA.
# To confirm the relevance of the mouse model findings, DMPA-mediated changes in mucosal permeability was explored with ectocervical biopsies from women using no hormonal contraceptive and again 1 month after they initiated DMPA.
# as §1, with “These human primers were used: desmoglein-1 (Hs00355084_m1) and glucose-6-phosphate isomerase (Hs00976711_m1) as a housekeeping reference gene.” left out
# genital mucosal barrier = experiment: Murine tissue permeability assay, low molecular weight fluorescent molecules given intravaginally; format: in vivo, mice
# Description: Effects of progestins on genital mucosal barrier permeability were evaluated by intravaginally (ivag) administering 457 Da and 70 KDa-sized fluorescent molecules to mice in estrus or diestrus-stage or after DMPA or LNG treatment. Mice were grouped as follows: untreated in estrus, untreated in diestrus, DMPA treated, or LNG treated. The mice were intravaginally administered a PBS solution containing Lucifer yellow (457 Da) and Texas-Red-conjugated dextran (70 KDa). Animals were euthanized 45 minutes later to assess vaginal tissue penetration of these molecules by confocal microscopy. […] Mucosal permeability was increased moderately by diestrus, but dramatically by DMPA or LNG. Conversely, permeability increases were negligible in estrus-stage mice and mice treated with MePRDL or DMPA and RU486. This indicates exogenous progestins increase genital mucosal permeability.
# To evaluate mucosal permeability to low molecular weight molecules, indicated groups of mice were sedated, and 10 μL of a PBS solution containing 62.5 μg of dextran Texas-Red® (DR) (MW=70,000 Da) and 50 μg of Lucifer yellow CH, lithium salt (LY) (MW=457.2 Da) (both from Life Technologies) administered intravaginally. 45 minutes later, mice were euthanized, and excised vaginal tissue fixed in formaldehyde. Fixed tissue was embedded in agarose, and 200-300 μm specimens were sectioned with a vibratome. After counterstaining with 4,6-diamidino-2-phenylindole (DAPI), confocal microscopy images were acquired by sequential scanning to prevent fluorescence crossover.
smiles,measurement,setting,value
CC(=O)O[C@]1(C(C)=O)CC[C@H]2[C@@H]3C[C@H](C)C4=CC(=O)CC[C@]4(C)[C@H]3CC[C@@]21C [DMPA],penetration of activated hPBMCs into genital mucosa,genital mucosa,more readily penetrated the genital mucosa
same,expression of markers of inflammation in ectocervical tissue,markers of inflammation,significantly higher
same,"gene expression of claudin-1, occludin, and tight junction protein 1",[1],did not alter
same,DSG1a gene expression in vaginal tissue,desmoglein-1a (DSG1a),decrease gene expression levels
same,DSG1 expression in ectocervical tissue,DSG1,significantly lower
same,penetration of the 457 Da molecules into vaginal tissue,"genital mucosal barrier; confocal images, 45 minutes after ivag administration",greatest penetration
same,Mucosal permeability increase,"genital mucosal barrier; mice, ivag Lucifer yellow (457 Da) and Texas-Red dextran (70 KDa), 45 minutes, confocal microscopy",dramatically
